The values that follow come from paper PMC9505067, “Synthesis of Hydantoin Androgen Receptor Antagonists and Study on Their Antagonistic Activity” (Molecules, 2022).

Broadly, the melting point is the temperature, or range, at which the solid turns liquid. A word on the IC50: it is the concentration needed to halve the response being measured.

Series [1] deals with T1, androgen receptor (AR) (Homo sapiens, UniProt P10275).
T1 sequence (P10275 1-920): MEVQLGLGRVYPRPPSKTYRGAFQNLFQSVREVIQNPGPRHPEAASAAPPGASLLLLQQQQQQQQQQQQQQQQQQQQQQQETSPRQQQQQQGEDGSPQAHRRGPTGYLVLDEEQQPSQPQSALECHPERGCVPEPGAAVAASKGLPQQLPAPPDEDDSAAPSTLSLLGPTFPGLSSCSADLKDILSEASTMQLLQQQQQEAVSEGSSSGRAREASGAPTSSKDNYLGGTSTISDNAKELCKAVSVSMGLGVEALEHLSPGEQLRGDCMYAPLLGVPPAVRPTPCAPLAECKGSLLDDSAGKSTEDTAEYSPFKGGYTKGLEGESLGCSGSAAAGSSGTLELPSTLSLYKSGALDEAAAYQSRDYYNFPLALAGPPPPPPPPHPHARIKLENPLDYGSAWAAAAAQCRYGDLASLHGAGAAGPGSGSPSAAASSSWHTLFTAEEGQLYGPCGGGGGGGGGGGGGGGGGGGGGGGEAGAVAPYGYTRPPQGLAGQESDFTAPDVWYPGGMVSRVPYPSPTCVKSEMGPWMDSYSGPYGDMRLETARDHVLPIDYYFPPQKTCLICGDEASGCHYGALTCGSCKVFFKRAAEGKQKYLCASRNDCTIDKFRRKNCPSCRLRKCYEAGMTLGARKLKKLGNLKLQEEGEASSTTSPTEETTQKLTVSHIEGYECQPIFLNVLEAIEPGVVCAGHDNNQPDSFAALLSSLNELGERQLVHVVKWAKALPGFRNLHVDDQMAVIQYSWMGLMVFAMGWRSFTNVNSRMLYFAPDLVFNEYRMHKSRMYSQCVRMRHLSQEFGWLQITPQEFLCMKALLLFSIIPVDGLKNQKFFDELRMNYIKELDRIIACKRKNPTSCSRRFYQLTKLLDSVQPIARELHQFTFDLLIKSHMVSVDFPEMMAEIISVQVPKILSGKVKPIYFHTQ
The experiment in a line: AR antagonist luciferase gene reporter assay (AR plasmid pSVAR0 + MMTV-Luc, DHT at EC80). Background: In a reporter assay the amount or activity of a reporter protein is the signal.

[2] abbreviates: luciferase reporter in AR-transfected cells, DHT at EC80, 24 h, enzalutamide = 100, means ± SD of three independent experiments.
The mark [3] stands for this setting: Antagonist Activity in CV-1 IC50, luciferase reporter in AR-transfected cells, DHT at EC80, 24 h incubation, means ± SD of three independent experiments.

Like-named read-outs stand apart in the source and are kept apart here. Where only a bound is given, the exact number is not on record here.

Regarding `CN1CCC(Oc2ccc(N3C(=S)N(c4cnc(C#N)c(C(F)(F)F)c4)C(=O)C3(C)CO)cc2)CC1` (stereo not drawn) [19d, 5-(4-(hydroxymethyl)-4-methyl-3-(4-((1-methylpiperidin-4-yl)oxy)phenyl)-5-oxo-2-thioxoimidazolidin-1-yl)-3-(trifluoromethyl)picolinonitrile], the melting point fell in the range of 119 to 121 °C. The IC50 in series [1] was 0.139 ± 0.0281 µM. In addition, the “Antagonist Activity in CV-1 Efficacy” value in series [1] (setting [2]) amounted to 81.64 ± 5.92%.
The compound `CC(=O)Nc1ccc(N2C(=S)N(c3ccc(C#N)c(C(F)(F)F)c3)C(=O)C2(C)CO)cc1` (stereo not drawn) [compound 9, N-(4-(3-(4-cyano-3-(trifluoromethyl)phenyl)-5-(hydroxymethyl)-5-methyl-4-oxo-2-thioxoimidazolidin-1-yl)phenyl)acetamide] came in with a melting point of 126 to 128 °C. The “Antagonist Activity in CV-1 Efficacy” value in series [1] is 95 ± 3.1%. The IC50 in series [1] (setting [3]) is 0.939 ± 0.124 µM.
In turn, `CC1(CO)C(=O)N(c2ccc(C#N)c(C(F)(F)F)c2)C(=S)N1c1ccc(C#N)cc1` (stereo not drawn) [6g, 4-(3-(4-cyanophenyl)-4-(hydroxymethyl)-4-methyl-5-oxo-2-thioxoimidazolidin-1-yl)-2-(trifluoromethyl)benzonitrile] returned a melting point of 234 to 236 °C. The “Antagonist Activity in CV-1 Efficacy” value in series [1] is listed as 102 ± 15.5%. In addition, the IC50 in series [1] (setting [3]) is 0.338 ± 0.0447 µM.
Take `CC1(CO)C(=O)N(c2ccc(C#N)c(C(F)(F)F)c2)C(=O)N1c1ccc(C#N)cc1` (stereo not drawn) [7g, 4-(3-(4-cyanophenyl)-4-(hydroxymethyl)-4-methyl-2,5-dioxoimidazolidin-1-yl)-2-(trifluoromethyl)benzonitrile]: the “Antagonist Activity in CV-1 Efficacy” value in series [1] is listed as 98 ± 11.6%. For the same compound, the IC50 in series [1] (setting [3]) was found to be 0.061 ± 0.0061 µM.
The compound `CNC(=O)c1ccc(N2C(=S)N(c3cnc(C#N)c(C(F)(F)F)c3)C(=O)C2(C)CO)cc1F` (stereo not drawn) [19c, 4-(3-(6-cyano-5-(trifluoromethyl)pyridin-3-yl)-5-(hydroxymethyl)-5-methyl-4-oxo-2-thioxoimidazolidin-1-yl)-2-fluoro-N-methylbenzamide] showed a melting point of 127 to 129 °C. The IC50 in series [1] was found to be 0.903 ± 0.602 µM. Moreover, the “Antagonist Activity in CV-1 Efficacy” value in series [1] (setting [2]) is listed as 55.46 ± 14.74%.
`Cc1ccc(N2C(=S)N(c3ccc(C#N)c(C(F)(F)F)c3)C(=O)C2(C)CO)cc1` (stereo not drawn) [6b, 4-(4-(hydroxymethyl)-4-methyl-5-oxo-2-thioxo-3-(p-tolyl)imidazolidin-1-yl)-2-(trifluoromethyl)benzonitrile] yielded a melting point of 190 to 192 °C. Moreover, in series [1], the “Antagonist Activity in CV-1 Efficacy” value turned out to be 86 ± 4.2%. Besides, the IC50 in series [1] (setting [3]) came to 0.549 ± 0.0478 µM.
Taken in the same sequence, the figures for `CC1(CO)C(=O)N(c2ccc(C#N)c(C(F)(F)F)c2)C(=O)N1c1ccc(F)cc1` (stereo not drawn) [7c, 4-(3-(4-fluorophenyl)-4-(hydroxymethyl)-4-methyl-2,5-dioxoimidazolidin-1-yl)-2-(trifluoromethyl)benzonitrile] were 208 to 210 °C, 94 ± 14.6% and 0.0673 ± 0.0155 µM.
In the case of `CN1CCC(Oc2ccc(N3C(=S)N(c4ccc(C#N)c(C(F)(F)F)c4)C(=O)C3(C)CO)cc2)CC1` (stereo not drawn) [6l, 4-(4-(hydroxymethyl)-4-methyl-3-(4-((1-methylpiperidin-4-yl)oxy)phenyl)-5-oxo-2-thioxoimidazolidin-1-yl)-2-(trifluoromethyl)benzonitrile], the melting point was in the range of 117 to 119 °C. For the same compound, the “Antagonist Activity in CV-1 Efficacy” value in series [1] is 92 ± 2.9%. Further, in series [1] (setting [3]), the IC50 came out at 0.337 µM.
The corresponding values for `CC1(CO)C(=O)N(c2ccc(C#N)c(C(F)(F)F)c2)C(=S)N1c1ccc(C(F)(F)F)cc1` (stereo not drawn) [6i, 4-(4-(hydroxymethyl)-4-methyl-5-oxo-2-thioxo-3-(4-(trifluoromethyl)phenyl)imidazolidin-1-yl)-2-(trifluoromethyl)benzonitrile] are 178 to 180 °C, 102 ± 8.9% and 0.0682 ± 0.0046 µM.
Take `CNC(=O)c1ccc(N2C(=S)N(c3ccc(C#N)c(C(F)(F)F)c3)C(=O)C2(C)CO)cc1F` (stereo not drawn) [6k, 4-(3-(4-cyano-3-(trifluoromethyl)phenyl)-5-(hydroxymethyl)-5-methyl-4-oxo-2-thioxoimidazolidin-1-yl)-2-fluoro-N-methylbenzamide]: in series [1], the “Antagonist Activity in CV-1 Efficacy” value is 88 ± 3.5%. Besides, in series [1] (setting [3]), the IC50 was 0.126 µM.
`CC1(CO)C(=O)N(c2ccc(C#N)c(C(F)(F)F)c2)C(=O)N1c1ccc(Cl)cc1` (stereo not drawn) [7d, 4-(3-(4-chlorophenyl)-4-(hydroxymethyl)-4-methyl-2,5-dioxoimidazolidin-1-yl)-2-(trifluoromethyl)benzonitrile] yielded a melting point of 152 to 154 °C. The “Antagonist Activity in CV-1 Efficacy” value in series [1] is 94 ± 9.7%. Further, in series [1] (setting [3]), the concentration for half-maximal inhibition (IC50) is 0.0686 ± 0.0224 µM.
Regarding `CC1(CO)C(=O)N(c2ccc(C#N)c(C(F)(F)F)c2)C(=S)N1c1ccc([N+](=O)[O-])cc1` (stereo not drawn) [6h, 4-(4-(hydroxymethyl)-4-methyl-3-(4-nitrophenyl)-5-oxo-2-thioxoimidazolidin-1-yl)-2-(trifluoromethyl)benzonitrile], the melting point was 206 to 208 °C. Also, the IC50 in series [1] (setting [3]) was found to be 79.6 µM.
`CC1(CO)C(=O)N(c2ccc(C#N)c(C(F)(F)F)c2)C(=O)N1c1ccccc1` (stereo not drawn) [7a, 4-(4-(hydroxymethyl)-4-methyl-2,5-dioxo-3-phenylimidazolidin-1-yl)-2-(trifluoromethyl)benzonitrile] had a melting point of 187 to 189 °C. Moreover, the “Antagonist Activity in CV-1 Efficacy” value in series [1] was 101 ± 15.1%. Also, the IC50 in series [1] (setting [3]) is 0.0948 ± 0.0128 µM.
As to `CC1(CO)C(=O)N(c2ccc(C#N)c(C(F)(F)F)c2)C(=O)N1c1ccc(C(F)(F)F)cc1` (stereo not drawn) [7i, 4-(4-(hydroxymethyl)-4-methyl-2,5-dioxo-3-(4-(trifluoromethyl)phenyl)imidazolidin-1-yl)-2-(trifluoromethyl)benzonitrile], the melting point is 161 to 163 °C. In addition, in series [1], the “Antagonist Activity in CV-1 Efficacy” value turned out to be 99 ± 12.5%. Moreover, in series [1] (setting [3]), the half-maximal inhibitory concentration (IC50) is 0.149 ± 0.0304 µM.
Taken in the same sequence, the figures for `CC1(CO)C(=O)N(c2ccc(C#N)c(C(F)(F)F)c2)C(=O)N1c1ccc(O)cc1` (stereo not drawn) [11b, 4-(4-(hydroxymethyl)-3-(4-hydroxyphenyl)-4-methyl-2,5-dioxoimidazolidin-1-yl)-2-(trifluoromethyl)benzonitrile] were 110 to 112 °C, 100 ± 3.4% and 2.36 ± 1.71 µM.
The corresponding values for `CC1(CO)C(=O)N(c2ccc(C#N)c(C(F)(F)F)c2)C(=S)N1c1ccc(Cl)cc1` (stereo not drawn) [6d, 4-(3-(4-chlorophenyl)-4-(hydroxymethyl)-4-methyl-5-oxo-2-thioxoimidazolidin-1-yl)-2-(trifluoromethyl)benzonitrile] are 205 to 207 °C, 96 ± 3.8% and 0.0793 ± 0.0132 µM.
Taken in the same sequence, the figures for `CC1(CO)C(=O)N(c2ccc(C#N)c(C(F)(F)F)c2)C(=S)N1c1ccc(O)cc1` (stereo not drawn) [11a, 4-(4-(hydroxymethyl)-3-(4-hydroxyphenyl)-4-methyl-5-oxo-2-thioxoimidazolidin-1-yl)-2-(trifluoromethyl)benzonitrile] were 203 to 205 °C, 90 ± 7.5% and 3.64 ± 0.932 µM.
`COc1ccc(N2C(=S)N(c3ccc(C#N)c(C(F)(F)F)c3)C(=O)C2(C)CO)cc1` (stereo not drawn) [6f, 4-(4-(hydroxymethyl)-3-(4-methoxyphenyl)-4-methyl-5-oxo-2-thioxoimidazolidin-1-yl)-2-(trifluoromethyl)benzonitrile] displayed a melting point of 183 to 185 °C. Further, the “Antagonist Activity in CV-1 Efficacy” value in series [1] is recorded as 89 ± 3.7%. In addition, the IC50 in series [1] (setting [3]) was 0.286 ± 0.0295 µM.
`CC(=O)Nc1ccc(N2C(=O)N(c3ccc(C#N)c(C(F)(F)F)c3)C(=O)C2(C)CO)cc1` (stereo not drawn) [compound 10, N-(4-(3-(4-cyano-3-(trifluoromethyl)phenyl)-5-(hydroxymethyl)-5-methyl-2,4-dioxoimidazolidin-1-yl)phenyl)acetamide] had a melting point of 124 to 126 °C. The “Antagonist Activity in CV-1 Efficacy” value in series [1] is on record as 84 ± 8.6%. For the same compound, in series [1] (setting [3]), the IC50 is greater than 5 µM.
Taken in the same sequence, the figures for `COc1ccc(N2C(=O)N(c3ccc(C#N)c(C(F)(F)F)c3)C(=O)C2(C)CO)cc1` (stereo not drawn) [7f, 4-(4-(hydroxymethyl)-3-(4-methoxyphenyl)-4-methyl-2,5-dioxoimidazolidin-1-yl)-2-(trifluoromethyl)benzonitrile] were 128 to 130 °C, 90 ± 13.3% and 0.416 ± 0.23 µM.
